Reference: US9670214B2, “Small molecule myristate inhibitors of Bcr-abl and methods of use” (DANA-FARBER CANCER INSTITUTE, INC., priority 2007, dated 2017)

The molecules below were run on Ba/F3 cells (IL-3 dependent murine pro-B cell line) (assay: Proliferation assay (MTT), parental Ba/F3 cells). Conditions: Mus musculus, 48 h, drug concentrations 0.005-10 μM, read-out: BaF3.
Assay type: cell-based
Description: Interleukin-3 (IL-3) dependent murine pro-B cell line, Ba/F3, and murine myeloid precursor cell line, 32D, were maintained in RPMI-1640 medium supplemented with L-Glutamine, 10% FBS and 10 U/ml recombinant murine IL-3 (Roche). Mo7e human megakarioblastic cell line was grown in RPMI-1640 medium supplemented with L-Glutamine, 20% FBS and 5 ng/ml recombinant human granulocyte macrophage cell stimulating factor (GM-CSF) (R&D Systems) or 200 ng/ml stem cell factor (SCF) (Biosource).
(§1) Cells (0.3-0.6×10^6/ml) were plated in duplicate or triplicate in 96-well plates containing increasing drug concentrations (0.005-10 μM). After incubation at 37° C. in 5% CO2 for 48 h, the effect of the compounds on cell viability was determined by MTT (Promega) colorimetric dye reduction method. Inhibition of cell proliferation was calculated as a percentage of growth of DMSO treated cells, and IC50 values were determined with Microsoft Excel XLfit3.
In the case of `O=C1Cc2c(ncnc2Nc2ccc(OC(F)(F)F)cc2)N1`, the IC50 is reported as > 10 µM.
For `FC(F)(F)Oc1ccc(Nc2ncnc3c2cnn3-c2ccc(Cl)cc2Cl)cc1`, the IC50 was > 10 µM.
With `O=C(c1ccc2c(Nc3ccc(OC(F)(F)F)cc3)ncnc2c1)N1CCC(O)CC1` the IC50 was > 10 µM.
With `FC(F)(F)Oc1ccc(Nc2ncnc3c2cnn3Cc2ccncc2)cc1` the IC50 was > 10 µM.
In the case of `COCCCNC(=O)CCn1ccc2c(Nc3ccc(OC(F)(F)F)cc3)ncnc21`, the IC50 is reported as > 10 µM.
With `Cc1c(-c2cc(Nc3ccc(OC(F)(F)F)cc3)ncn2)cnn1-c1ccccc1` the IC50 was > 10 µM.
`FC(F)(F)Oc1ccc(Nc2cc(-c3ccnc4[nH]ccc34)ncn2)cc1` was tested, and the IC50 was 6.85 µM.
With `CC(C)S(=O)(=O)Nc1ccc(-c2cc(Nc3ccc(OC(F)(F)F)cc3)ncn2)cc1` the IC50 was 6.93 µM.
With `FC(F)(F)Oc1ccc(Nc2cc(Nc3nccn3-c3cccc(C(F)(F)F)c3)ncn2)cc1` the IC50 was 2.56 µM.
`Cc1cccc(-n2ncc3c(Nc4ccc(OC(F)(F)F)cc4)ncnc32)c1C` was tested, and the IC50 was > 10 µM.
Molecule `CC(C)(C)n1ncc2c(Nc3ccc(OC(F)(F)F)cc3)ncnc21` has an IC50 of 7.3 µM.
For `Cn1c(C(=O)N2CCC(Br)CC2)cc2c(Nc3ccc(OC(F)(F)F)cc3)ncnc21`, the IC50 was > 10 µM.
`FC(F)(F)Oc1ccc(Nc2ncnc3nn(-c4cc(C(F)(F)F)ccn4)cc23)cc1` was tested, and the IC50 was > 10 µM.
`FC(F)(F)Oc1ccc(Nc2ncnc3nn(C4CCCCC4)cc23)cc1` was tested, and the IC50 was > 10 µM.
In the case of `CCOC(=O)Cc1cnc(NC(=O)c2ccc3c(Nc4ccc(OC(F)(F)F)cc4)ncnc3c2)s1`, the IC50 is reported as > 10 µM.
In the case of `OC[C@H]1OC(n2cnc3c(Nc4ccc(OC(F)(F)F)cc4)ncnc32)[C@H](O)[C@@H]1O` (some centres unmarked), the IC50 is reported as > 10 µM.
Work on `NC(=O)CCn1ncc2c(Nc3ccc(OC(F)(F)F)cc3)ncnc21` yielded an IC50 of 8.7 µM.
`Fc1cc(Cn2cc3c(Nc4ccc(OC(F)(F)F)cc4)ncnc3n2)ccc1C(F)(F)F` gave an IC50 of 4.6 µM.
In the case of `CCN(CC)S(=O)(=O)c1ccc(-c2ncnc(Nc3ccc(OC(F)(F)F)cc3)c2C)cc1`, the IC50 is reported as > 10 µM.
In the case of `FC(F)(F)Oc1ccc(Nc2ncnc3c2cnn3CCc2ccccc2)cc1`, the IC50 is reported as > 10 µM.
For `Cc1c(Nc2ccc(OC(F)(F)F)cc2)ncnc1-c1cnn(C)c1`, the IC50 was > 10 µM.
In the case of `FC(F)(F)Oc1ccc(Nc2ncnc3c2cnn3-c2cc(C(F)(F)F)ccn2)cc1`, the IC50 is reported as > 10 µM.
`FC(F)(F)Oc1ccc(Nc2ncnc3nn(-c4ccc(Cl)cc4Cl)cc23)cc1` was tested, and the IC50 was > 10 µM.
For `O=C(c1cc2c(Nc3ccc(OC(F)(F)F)cc3)ncnc2s1)N1CCN(N2CCCC2)CC1`, the IC50 was 5.77 µM.
For `COCCCNC(=O)c1ccc(-c2ncnc(Nc3ccc(OC(F)(F)F)cc3)c2C)cc1`, the IC50 was 3.11 µM.
For `OCCn1cc2c(Nc3ccc(OC(F)(F)F)cc3)ncnc2n1` [2-(4-(4-(trifluoromethoxy)phenylamino)-2H-pyrazolo[3,4-d]pyrimidin-2-yl)ethanol], the IC50 was > 10 µM.
With `FC(F)(F)Oc1ccc(Nc2cc(-c3cc(NCCN4CCOCC4)ncn3)ncn2)cc1` the IC50 was > 10 µM.
For `CN1CCCN(C(=O)c2ccc3c(Nc4ccc(OC(F)(F)F)cc4)ncnc3c2)CC1`, the IC50 was 6.98 µM.
`CCc1ccccc1-n1cc2c(Nc3ccc(OC(F)(F)F)cc3)ncnc2n1` was tested, and the IC50 was > 10 µM.
For `FC(F)(F)Oc1ccc(Nc2ncnc3nn(CC4CCOC4)cc23)cc1` (centres unmarked), the IC50 was > 10 µM.
In the case of `Cc1cccc(-n2cc3c(Nc4ccc(OC(F)(F)F)cc4)ncnc3n2)c1C`, the IC50 is reported as > 10 µM.
`OC[C@H]1OC(n2ccc3c(Nc4ccc(OC(F)(F)F)cc4)ncnc32)[C@H](O)[C@@H]1O` (some centres unmarked) was tested, and the IC50 was > 10 µM.
In the case of `FC(F)(F)Oc1ccc(Nc2ncnc3c2ncn3CCN2CCOCC2)cc1`, the IC50 is reported as > 10 µM.
With `NC(=O)Cn1cc2c(Nc3ccc(OC(F)(F)F)cc3)ncnc2n1` the IC50 was > 3.3 µM.
In the case of `CCS(=O)(=O)n1ncc2c(Nc3ccc(OC(F)(F)F)cc3)ncnc21`, the IC50 is reported as 7 µM.
`NC(=O)C1CCN(C(=O)c2ccc3c(Nc4ccc(OC(F)(F)F)cc4)ncnc3c2)CC1` was tested, and the IC50 was > 10 µM.
For `Cc1c(Nc2ccc(OC(F)(F)F)cc2)ncnc1-c1ccc(S(N)(=O)=O)cc1`, the IC50 was > 10 µM.
In the case of `CCCCn1cc2c(Nc3ccc(OC(F)(F)F)cc3)ncnc2n1`, the IC50 is reported as > 10 µM.
For `COC[C@H]1CCCN1C(=O)c1cc2c(Nc3ccc(OC(F)(F)F)cc3)ncnc2n1C`, the IC50 was > 10 µM.
With `FC(F)(F)Oc1ccc(Nc2ncnc3c2cnn3Cc2ccccc2)cc1` the IC50 was > 10 µM.
In the case of `OCc1cc2c(Nc3ccc(OC(F)(F)F)cc3)ncnc2s1`, the IC50 is reported as > 10 µM.
`O=C1c2ccccc2C(=O)N1CCn1ncc2c(Nc3ccc(OC(F)(F)F)cc3)ncnc21` was tested, and the IC50 was > 10 µM.
For `FC(F)(F)Oc1ccc(Nc2ncnc3c2cnn3CC2CCOC2)cc1` (centres unmarked), the IC50 was > 10 µM.
For `COC1CCN(C(=O)c2cc3c(Nc4ccc(OC(F)(F)F)cc4)ncnc3s2)CC1`, the IC50 was > 10 µM.
In the case of `O=C(c1ccc2c(Nc3ccc(OC(F)(F)F)cc3)ncnc2c1)N1CCCC(CO)C1` (centres unmarked), the IC50 is reported as > 10 µM.
Molecule `FC(F)(F)Oc1ccc(Nc2ncnc3c2cnn3C2CCCCC2)cc1` has an IC50 of 9.3 µM.
For `CC(C)S(=O)(=O)c1ccc(-c2cc(Nc3ccc(OC(F)(F)F)cc3)ncn2)cc1`, the IC50 was > 10 µM.
For `FC(F)(F)Oc1ccc(Nc2ncnc3[nH]ncc23)cc1`, the IC50 was > 10 µM.
Work on `CCS(=O)(=O)Nc1ccc(-c2cc(Nc3ccc(OC(F)(F)F)cc3)ncn2)cc1` yielded an IC50 of 8.31 µM.
`CN(C)CC(C#N)n1ncc2c(Nc3ccc(OC(F)(F)F)cc3)ncnc21` (centres unmarked) was tested, and the IC50 was > 10 µM.
For `FC(F)(F)Oc1ccc(Nc2cc(-c3cnn(Cc4cccnc4)c3)ncn2)cc1`, the IC50 was > 10 µM.
`O=Cc1cnc2c(ccn2CCN2CCOCC2)c1Nc1ccc(OC(F)(F)F)cc1Br` was tested, and the IC50 was > 10 µM.
For `COc1ccc(Cn2ccc3c(Nc4ccc(OC(F)(F)F)cc4)ncnc32)cc1`, the IC50 was > 10 µM.
For `FC(F)(F)Oc1ccc(Nc2ncnc3nn(Cc4cccc(Br)c4)cc23)cc1`, the IC50 was > 10 µM.
In the case of `NCCn1ncc2c(Nc3ccc(OC(F)(F)F)cc3)ncnc21`, the IC50 is reported as > 10 µM.
In the case of `Cc1c(Nc2ccc(OC(F)(F)F)cc2)ncnc1-c1cnn(CC(C)C)c1`, the IC50 is reported as 1.46 µM.
With `CCOC(=O)C1CCCN(C(=O)c2cc3c(Nc4ccc(OC(F)(F)F)cc4)ncnc3n2C)C1` (centres unmarked) the IC50 was > 10 µM.
For `FC(F)(F)Oc1ccc(Nc2ncnc3nn(CCc4ccccc4)cc23)cc1`, the IC50 was > 10 µM.
In the case of `NC(=O)Cn1ncc2c(Nc3ccc(OC(F)(F)F)cc3)ncnc21`, the IC50 is reported as > 10 µM.
For `FC(F)(F)Cn1ncc2c(Nc3ccc(OC(F)(F)F)cc3)ncnc21`, the IC50 was > 10 µM.
`CCCCS(=O)(=O)Nc1ccc(-c2cc(Nc3ccc(OC(F)(F)F)cc3)ncn2)cc1` was tested, and the IC50 was 8.92 µM.
Molecule `CCNC(=O)c1cc2c(Nc3ccc(OC(F)(F)F)cc3)ncnc2n1C` has an IC50 of 5.37 µM.
In the case of `Cc1c(Nc2ccc(OC(F)(F)F)cc2)ncnc1-c1cnn(Cc2ccccc2)c1`, the IC50 is reported as 9.9 µM.
`CN(C)C1CCN(C(=O)c2ccc3c(Nc4ccc(OC(F)(F)F)cc4)ncnc3c2)C1` (centres unmarked) was tested, and the IC50 was > 10 µM.
For `CCc1ccccc1-n1ncc2c(Nc3ccc(OC(F)(F)F)cc3)ncnc21`, the IC50 was > 10 µM.
In the case of `CCn1ncc2c(Nc3ccc(OC(F)(F)F)cc3)ncnc21`, the IC50 is reported as > 10 µM.
For `O=C(c1ccc2c(Nc3ccc(OC(F)(F)F)cc3)ncnc2c1)N1CCC(Br)CC1`, the IC50 was 7.42 µM.
Molecule `O=[N+]([O-])c1cccc(-c2cn3cnc(Nc4ccc(OC(F)(F)F)cc4)cc3n2)c1` [2-(3-nitrophenyl)-N-(4-(trifluoromethoxy)phenyl)imidazo[1,2-c]pyrimidin-7-amine] has an IC50 of 9.6 µM.
In the case of `Oc1cccc(Cn2cc3c(Nc4ccc(OC(F)(F)F)cc4)ncnc3n2)c1`, the IC50 is reported as 6.9 µM.
With `Cn1cnc2ncnc(Nc3ccc(OC(F)(F)F)cc3)c21` the IC50 was > 10 µM.
For `CCCCn1ncc2c(Nc3ccc(OC(F)(F)F)cc3)ncnc21`, the IC50 was 6.6 µM.
In the case of `OCCn1ncc2c(Nc3ccc(OC(F)(F)F)cc3)ncnc21` [2-(4-(4-(trifluoromethoxy)phenylamino)-1H-pyrazolo[3,4-d]pyrimidin-1-yl)ethanol], the IC50 is reported as > 10 µM.
In the case of `Cn1c(C(=O)N2CCCC(CO)C2)cc2c(Nc3ccc(OC(F)(F)F)cc3)ncnc21` (centres unmarked), the IC50 is reported as 7.29 µM.
Work on `FC(F)(F)Oc1ccc(Nc2ncnc3nn(Cc4cccnc4)cc23)cc1` yielded an IC50 of 2.1 µM.
For `CCn1cc2c(Nc3ccc(OC(F)(F)F)cc3)ncnc2n1`, the IC50 was > 10 µM.
In the case of `CN1C(=O)Cc2c(Nc3ccc(OC(F)(F)F)cc3)ncnc21`, the IC50 is reported as > 10 µM.
For `Fc1ccccc1-n1cc2c(Nc3ccc(OC(F)(F)F)cc3)ncnc2n1`, the IC50 was > 10 µM.
Molecule `FC(F)(F)Oc1ccc(Nc2cc(Nc3cc(C4CC4)[nH]n3)ncn2)cc1` has an IC50 of 5.62 µM.
`NS(=O)(=O)c1cccc(-n2ncc3c(Nc4ccc(OC(F)(F)F)cc4)ncnc32)c1` gave an IC50 of 1.8 µM.
In the case of `Cn1c(C(=O)N2CCC3(CC2)C(=O)NCN3c2ccccc2)cc2c(Nc3ccc(OC(F)(F)F)cc3)ncnc21`, the IC50 is reported as > 10 µM.
In the case of `FC(F)(F)Oc1ccc(Nc2ncnc3c2cnn3Cc2ccccn2)cc1`, the IC50 is reported as > 10 µM.
`FC(F)(F)Oc1ccc(Nc2ncnc3nn(Cc4ccccc4)cc23)cc1` was tested, and the IC50 was > 10 µM.
`OCCn1ccc2c(Nc3ccc(OC(F)(F)F)cc3)ncnc21` was tested, and the IC50 was > 10 µM.
Work on `FC(F)(F)Cn1cc2c(Nc3ccc(OC(F)(F)F)cc3)ncnc2n1` yielded an IC50 of 8 µM.
In the case of `Cn1cc(-c2cc(Nc3ccc(OC(F)(F)F)cc3)ncn2)cn1`, the IC50 is reported as > 10 µM.
For `Fc1ccccc1-n1ncc2c(Nc3ccc(OC(F)(F)F)cc3)ncnc21`, the IC50 was > 10 µM.

The molecules below were run against Bcr-abl T315I (Ba/F3.p210^T315I cells) (Homo sapiens, UniProt P00519, T315I, cells depend on it) (assay: Proliferation assay (MTT), T315I mutant Bcr-abl expressing Ba/F3 cells). Conditions: 48 h, drug concentrations 0.005-10 μM.
Assay type: cell-based, murine
Source text: Wild type Bcr-abl expressing 32D (32D.p210) and Ba/F3 (Ba/F3.p210) cells, and mutant Bcr-abl expressing cell lines Ba/F3.p210^G250E, Ba/F3.p210^E255V, Ba/F3.p210^T315I, Ba/F3.p210^F317L and Ba/F3.p210^M351T, as well as Ba/F3 cells transformed with Flt-3-ITD kinase. Additional assays included Ba/F3 cells expressing the fusion protein kinases TEL-PDGFRβ, TEL-JAK1, NPM-ALK, TEL-cKit, Tel-Bmx, Tel-FGR3, Tel-Lck and Ba/F3.TPR-met cells. All the above cell lines were maintained in RPMI-1640 medium with L-Glutamine, 10% FBS and 1 mg/ml geneticin (Gibco).
as §1
Work on `Cc1c(-c2cc(Nc3ccc(OC(F)(F)F)cc3)ncn2)cnn1-c1ccccc1` yielded an IC50 of 6.23 µM.
In the case of `FC(F)(F)Oc1ccc(Nc2cc(-c3ccnc4[nH]ccc34)ncn2)cc1`, the IC50 is reported as > 10 µM.
In the case of `O=C(NCCN1CCOCC1)c1cc2c(Nc3ccc(OC(F)(F)F)cc3)ncnc2s1` [drawing 332], the IC50 is reported as > 10 µM.
